Key:
Format in all cases: in vivo
[1] = test system: Beet Armyworm (Spodoptera exigua, LAPHEG) ("BAW"); assay: Bioassays on BAW, 128-well diet tray assay; conditions: 168 h, second instar larvae, 50 μg/cm^2 on artificial diet, 25° C., five to seven days, average of eight wells, read-out: BAW % Control (or Mortality) rating
Outline: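 One to five second-instar larvae were placed per well on artificial diet surface-treated with 50 μg/cm^2 compound from 90:10 acetone-water, dried before infestation. Trays were held at 25 °C, 14:10 light-dark, for five to seven days. Percent mortality was averaged over eight wells.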

[2] = test system: Cabbage Looper (Trichoplusia ni, TRIPNI) ("CL"); assay: Bioassays on CL, 128-well diet tray assay; conditions: 168 h, second instar larvae, 50 μg/cm^2 on artificial diet, 25° C., five to seven days, average of eight wells, read-out: CL % Control (or Mortality) rating
Outline: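 Second-instar larvae (one to five per well) on artificial diet surface-treated with 50 μg/cm^2 compound in 90:10 acetone-water, eight wells per treatment. Held at 25° C., 14:10 light-dark for five to seven days. Percent mortality scored per well and averaged over the eight wells.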

[3] = test system: Green Peach Aphid (Myzus persicae, MYZUPE) ("GPA"); assay: Bioassays on GPA, foliar spray of infested cabbage seedlings; conditions: 72 h, 200 ppm spray on cabbage seedlings, graded after three days, Abbott corrected % control, read-out: GPA % Control (or Mortality) rating
Procedure: Certain molecules disclosed in this document were tested against GPA using procedures described in the following example. In the reporting of the results, the “GPA Rating Table” was used (See Table Section).
Cabbage seedlings grown in 3-inch pots, with 2-3 small (3-5 cm) true leaves, were used as test substrate. The seedlings were infested with 20-50 GPA (wingless adult and nymph stages) one day prior to chemical application. Four pots with individual seedlings were used for each treatment. Test compounds (2 mg) were dissolved in 2 mL of acetone/methanol (1:1) solvent, forming stock solutions of 1000 ppm test compound. The stock solutions were diluted 5× with 0.025% Tween 20 in water to obtain the solution at 200 ppm test compound. A hand-held aspirator-type sprayer was used for spraying a solution to both sides of […] leaves until runoff. Reference plants (solvent check) were sprayed with the diluent only containing 20% by volume of acetone/methanol (1:1) solvent. Treated plants were held in a holding room for three days at approximately 25° C. and ambient relative humidity (RH) prior to grading. Evaluation was conducted by counting the number of live aphids per plant under a microscope. Percent Control was measured by using Abbott's correction formula (W. S. Abbott, “A Method of Computing the Effectiveness of an Insecticide” J. Econ. Entomol. 18 (1925), pp. 265-267) as follows. Corrected % Control=100*(X−Y)/X • where • X=No. of live aphids on solvent check plants and • Y=No. of live aphids on treated plants

[4] = test system: Yellow Fever Mosquito (Aedes aegypti, AEDSAE) ("YFM"); assay: Bioassays on YFM, 96-well plate larval assay; conditions: about 1 day-old larvae, from 4000 ppm DMSO master plate diluted, room temperature, scored after 3 days
Outline: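 Compounds from 4000 ppm DMSO master plates, diluted in 90:10 water:acetone, dispensed into 96-well plates, six replicates. About 1-day-old larvae added in liver-powder water. Wells covered, held 3 days at room temperature, then scored for mortality.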

| SMILES | mortality at 50 µg/cm2 [1] [%] | mortality at 50 µg/cm2 [2] [%] | mortality at 200 ppm [3] [%] | YFM % Control (or Mortality) rating [4] |
| --- | --- | --- | --- | --- |
| CC(C)c1ccccc1N(C(=O)Nc1ccc(-c2ncn(-c3ccc(OC(F)(F)F)cc3)n2)cc1)C(N)=S [F6, N-[2-(Propan-2-yl)phenyl]-N-(4-{1-[4-(trifluoromethoxy)phenyl]-1H-1,2,4-triazol-3-yl}phenyl)dicarbonimidothioic diamide] | 50 to 100 | 50 to 100 | 0 to 80 | A (80-100) |
| O=C(NCCCc1ccc(-c2ncn(-c3ccc(OC(F)(F)F)cc3)n2)cc1)Nc1ccccc1-c1ccccc1 [P9, 1-([1,1′-Biphenyl]-2-yl)-3-(3-(4-(1-(4-(trifluoromethoxy)phenyl)-1H-1,2,4-triazol-3-yl)phenyl)propyl)urea] | 0 | 50 to 100 | 0 | B (More than 0 - Less than 80) |
| CSc1ccccc1-c1cccnc1NC(=S)Nc1ccc(-c2ncn(-c3ccc(OC(F)(F)F)cc3)n2)cc1 [F22, 1-(3-(2-(Methylthio)phenyl)pyridin-2-yl)-3-(4-(1-(4-(trifluoromethoxy)phenyl)-1H-1,2,4-triazol-3-yl)phenyl)thiourea] | 0 to 50 | 50 to 100 | 0 to 80 | D (No activity noticed in this bioassay) |
| COc1ccc(NC(=O)NCCCc2ccc(-c3ncn(-c4ccc(OC(F)(F)F)cc4)n3)cc2)c(C)c1 [P3, 1-(4-Methoxy-2-methylphenyl)-3-(3-(4-(1-(4-(trifluoromethoxy)phenyl)-1H-1,2,4-triazol-3-yl)phenyl)propyl)urea] | 0 | 0 | 0 | D (No activity noticed in this bioassay) |
| CC(C)c1ccccc1-c1ccccc1NC(=S)Nc1ccc(-c2ncn(-c3ccc(OC(F)(F)F)cc3)n2)cc1 [F28, 1-(2′-isopropyl-[1,1′-biphenyl]-2-yl)-3-(4-(1-(4-(trifluoromethoxy)phenyl)-1H-1,2,4-triazol-3-yl)phenyl)thiourea] | 0 to 50 | 50 to 100 | 0 to 80 | D (No activity noticed in this bioassay) |
| Cc1ccccc1-c1cccc(NC(=O)NCCCc2ccc(-c3ncn(-c4ccc(OC(F)(F)F)cc4)n3)cc2)c1 [FA2, 1-(2′-Methyl-[1,1′-biphenyl]-3-yl)-3-(3-(4-(1-(4-(trifluoromethoxy)phenyl)-1H-1,2,4-triazol-3-yl)phenyl)propyl)urea] | 0 | 0 | 0 | D (No activity noticed in this bioassay) |
| CC(C)(C)c1ccccc1NC(=O)Nc1ccc(-c2ncn(-c3ccc(OC(F)(F)F)cc3)n2)cc1 [F38, 1-(2-(Tert-butyl)phenyl)-3-(4-(1-(4-(trifluoromethoxy)phenyl)-1H-1,2,4-triazol-3-yl)phenyl)urea] | 0 to 50 | 50 to 100 | 0 | D (No activity noticed in this bioassay) |
| O=C(NCCCc1ccc(-c2ncn(-c3ccc(OC(F)(F)F)cc3)n2)cc1)Nc1cccc(-c2ccccc2)c1 [P7, 1-([1,1′-biphenyl]-3-yl)-3-(3-(4-(1-(4-(trifluoromethoxy)phenyl)-1H-1,2,4-triazol-3-yl)phenyl)propyl)urea] | 0 | 0 | 0 | D (No activity noticed in this bioassay) |
| CC(C)c1ccccc1-c1ccccc1NC(=O)Nc1ccc(-c2ncn(-c3ccc(OC(F)(F)F)cc3)n2)cc1 [F63, 1-(2′-Isopropyl-[1,1′-biphenyl]-2-yl)-3-(4-(1-(4-(trifluoromethoxy)phenyl)-1H-1,2,4-triazol-3-yl)phenyl)urea] | 50 to 100 | 50 to 100 | 0 to 80 | D (No activity noticed in this bioassay) |
| O=C(Nc1ccc(-c2ncn(-c3ccc(OC(F)(F)F)cc3)n2)cc1)Nc1ccccc1-c1ccccc1 [F31, 1-([1,1′-biphenyl]-2-yl)-3-(4-(1-(4-(trifluoromethoxy)phenyl)-1H-1,2,4-triazol-3-yl)phenyl)urea] | 50 to 100 | 50 to 100 | 0 to 80 | A (80-100) |
| CCc1ccccc1NC(=O)Nc1ccc(-c2ncn(-c3ccc(OC(F)(F)F)cc3)n2)cc1 [F46, 1-(2-Ethylphenyl)-3-(4-(1-(4-(trifluoromethoxy)phenyl)-1H-1,2,4-triazol-3-yl)phenyl)urea] | 50 to 100 | 50 to 100 | 0 to 80 | B (More than 0 - Less than 80) |
| CCc1ccccc1-c1cccnc1NC(=S)Nc1ccc(-c2ncn(-c3ccc(OC(F)(F)F)cc3)n2)cc1 [F20, 1-(3-(2-Ethylphenyl)pyridin-2-yl)-3-(4-(1-(4-(trifluoromethoxy)phenyl)-1H-1,2,4-triazol-3-yl)phenyl)thiourea] | 0 to 50 | 50 to 100 | 0 to 80 | D (No activity noticed in this bioassay) |
| CSc1ccccc1-c1ccccc1NC(=O)Nc1ccc(-c2ncn(-c3ccc(OC(F)(F)F)cc3)n2)cc1 [F60, 1-(2′-(Methylthio)-[1,1′-biphenyl]-2-yl)-3-(4-(1-(4-(trifluoromethoxy)phenyl)-1H-1,2,4-triazol-3-yl)phenyl)urea] | 50 to 100 | 50 to 100 | 0 to 80 | A (80-100) |
| CCc1ccccc1-c1ccccc1NC(=S)Nc1ccc(-c2ncn(-c3ccc(OC(F)(F)F)cc3)n2)cc1 [F4, 1-(2′-Ethyl-[1,1′-biphenyl]-2-yl)-3-(4-(1-(4-(trifluoromethoxy)phenyl)-1H-1,2,4-triazol-3-yl)phenyl)thiourea] | 50 to 100 | 50 to 100 | 0 | A (80-100) |
| CC(C)c1cccc(NC(=O)NCCCc2ccc(-c3ncn(-c4ccc(OC(F)(F)F)cc4)n3)cc2)c1 [P2, 1-(3-Isopropylphenyl)-3-(3-(4-(1-(4-(trifluoromethoxy)phenyl)-1H-1,2,4-triazol-3-yl)phenyl)propyl)urea] | 0 to 50 | 0 | 0 | D (No activity noticed in this bioassay) |
| C#Cc1ccccc1NC(=O)Nc1ccc(-c2ncn(-c3ccc(OC(F)(F)F)cc3)n2)cc1 [F5, 1-(2-Ethynylphenyl)-3-(4-(1-(4-(trifluoromethoxy)phenyl)-1H-1,2,4-triazol-3-yl)phenyl)urea] | 50 to 100 | 50 to 100 | 0 | D (No activity noticed in this bioassay) |
| CCc1ccccc1-c1ccccc1NC(=O)Nc1ccc(-c2ncn(-c3ccc(OC(F)(F)F)cc3)n2)cc1 [F35, 1-(2′-Ethyl-[1,1′-biphenyl]-2-yl)-3-(4-(1-(4-(trifluoromethoxy)phenyl)-1H-1,2,4-triazol-3-yl)phenyl)urea] | 50 to 100 | 50 to 100 | 0 | A (80-100) |
| O=C(Nc1ccc(-c2ncn(-c3ccc(OC(F)(F)F)cc3)n2)cc1)Nc1ccccc1N1CCOCC1 [F69, 1-(2-Morpholinophenyl)-3-(4-(1-(4-(trifluoromethoxy)phenyl)-1H-1,2,4-triazol-3-yl)phenyl)urea] | 50 to 100 | 50 to 100 | 0 | A (80-100) |
| O=C(Nc1ccc(-c2ncn(-c3ccc(OC(F)(F)C(F)(F)F)cc3)n2)cc1)Nc1ccccc1-c1ccccc1 [F68, 1-([1,1′-biphenyl]-2-yl)-3-(4-(1-(4-(perfluoroethoxy)phenyl)-1H-1,2,4-triazol-3-yl)phenyl)urea] | 50 to 100 | 50 to 100 | 0 to 80 | A (80-100) |
